Experimental data: paper PMC5832243, “The importance of negative determinants as modulators of CK2 targeting. The lesson of Akt2 S131” (PLoS ONE, 2018)

Legend:
Assay type in all cases: biochemical
recombinant CK2 α2β2 = target: T1, recombinant CK2 α2β2 (Homo sapiens, UniProt P67870+P68400); test: CK2 kinase assay, phosphorylation of synthetic peptides (33P, phosphocellulose filters); conditions: for Phosphorylation by CK2, time course (in words): 0-120 min incubation with CK2 (Fig 1A); for Phosphorylation by CK2: summary class of level of phosphorylation by CK2 (Table 4); for Effect of residue replacement in the Akt2 peptide on phosphorylation by CK2 (in words): 10 min with CK2, % of cpm of Akt1 wt peptide, means of 4 experiments (Fig 2A)
T1 construct: made in house
Protocol: Recombinant CK2α and CK2 α2β2 were expressed, purified and kindly donated by Dr. Stefania Sarno (Padova, Italy) and Andrea Venerando (Padova, Italy).
Phosphorylation of synthetic peptides was performed with recombinant CK2 α2β2 (0.025 μg) incubated at 30°C in a final volume of 20 μl containing 50 mM Tris/HCl (pH 7.5), 100 mM NaCl, 10 mM MgCl2, the indicated concentrations of peptides, and 20 μM [γ^33P-ATP] (5000–10000 cpm/pmol). Assays were stopped by spotting onto phosphocellulose filters. Filters were washed four times in 0.5% orthophosphoric acid before counting.

[1] = test system: Recombinant human PLK3-GST; test: PLK3 kinase assay on substrate peptides (33P, phosphocellulose filters); conditions: 1mM peptide, 1.5 μg PLK3, 10 min, 37°C, 20 μM [γ-33P]ATP; range according to the specific radioactivity; no-peptide control 2800-9000 cpm
Protocol: Recombinant human PLK3-GST (Polo-like kinase3 - Glutathione S-transferase), cloned in PGEX-4T1 vector, was produced in BL21 cells and purified by glutathione-Sepharose affinity chromatography, eluted by an elution buffer composed of 50mM Hepes, pH 8.0 and 20mM reduced glutathione. Purity was assessed by SDS-PAGE and Comassie blue staining.
1.5 μg of purified recombinant-PLK3 were incubated with the substrate peptides for 10 min at 37°C in 20 μl of kinase assay buffer containing 20 mM Tris-HCl pH 7.5, 10 mM MgCl2, 5mM DTT (dithiothreitol), 20 μM [γ-^33P]ATP (2000-6000 cpm/pmol). Assays were stopped by spotting onto phosphocellulose filters. Filters were washed four times in 0.5% orthophosphoric acid before scintillation counting.

CK2 = test: Phospho-aminoacid determination after CK2 phosphorylation (acid hydrolysis, high-voltage paper electrophoresis); conditions: 2 mM peptide, 20 or 120 min with CK2; only faint traces of phospho-threonine (Fig 2C)
Protocol: For the identification of the amino acids phosphorylated by CK2 in Akt2 peptide, after phosphorylation samples were hydrolyzed by incubation for 4 h at 110°C in 6 N HCl, then subjected to high-voltage paper electrophoresis at pH 1.9 for 2.5 h, in the presence of nonradioactive phospho-amino acids, as migration reference. Radioactivity was detected by digital autoradiography (Cyclone plus storage phosphor system, PerkinElmer), while migration of standard references was detected by ninhydrin staining.

T1 sequence (P68400 whole entry): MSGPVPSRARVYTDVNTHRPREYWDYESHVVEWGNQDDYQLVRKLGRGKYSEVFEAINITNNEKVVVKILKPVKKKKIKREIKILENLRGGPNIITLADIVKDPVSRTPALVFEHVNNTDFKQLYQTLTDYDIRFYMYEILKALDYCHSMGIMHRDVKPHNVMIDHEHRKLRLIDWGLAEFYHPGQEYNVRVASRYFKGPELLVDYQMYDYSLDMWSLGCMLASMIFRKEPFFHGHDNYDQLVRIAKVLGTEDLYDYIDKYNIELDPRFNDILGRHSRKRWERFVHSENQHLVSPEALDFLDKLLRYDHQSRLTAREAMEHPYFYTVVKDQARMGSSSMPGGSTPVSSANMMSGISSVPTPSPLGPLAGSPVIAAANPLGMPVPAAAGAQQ
T1 sequence (P67870 whole entry partner): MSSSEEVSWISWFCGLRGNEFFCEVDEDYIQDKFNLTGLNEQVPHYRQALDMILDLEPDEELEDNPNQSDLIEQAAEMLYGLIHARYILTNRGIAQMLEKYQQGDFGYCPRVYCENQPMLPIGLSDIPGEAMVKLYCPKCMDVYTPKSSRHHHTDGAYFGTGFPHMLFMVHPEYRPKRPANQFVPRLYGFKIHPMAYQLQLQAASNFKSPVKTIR

Substance	Phosphorylation by CK2 (recombinant CK2 α2β2)	Effect of residue replacement in the Akt2 peptide on phosphorylation by CK2 (in words) (recombinant CK2 α2β2)	further results
R3GSPSDNSGAEEMEV [Akt1(wt)]	+		Phosphorylation by CK2, time course (in words) (recombinant CK2 α2β2): good substrate
R3GSPSDNSTAEEMEV [Akt1GT, Akt1 peptide with G at n+1 replaced by T]	- (or not (-))		
R3GSPSDNSTTEEMEV [Akt2N, Akt2 peptide with S at n-1 replaced by N]	- (or not (-))	no beneficial effect	
R3GSPSDSSATEEMEV [Akt2TA, Akt2 peptide with T at n+1 replaced by A]	+		
R3GSPSDSSGTEEMEV [Akt2TG, Akt2 peptide with T at n+1 replaced by G]	+	comparable to that of the Akt1 peptide	
R3GSPSDSSSTEEMEV [Akt2TS, Akt2 peptide with T at n+1 replaced by S]	+		
R3GSPSDSSTAEEMEV [Akt2A, Akt2 peptide with T at n+2 replaced by A]	- (or not (-))	no beneficial effect	
R3GSPSDSSTTEEMEV [Akt2(wt)]	- (or not (-))		Phosphorylation by CK2, time course (in words) (recombinant CK2 α2β2): negligible extent; drop in phosphorylation efficiency in comparison to the Akt1 peptide (recombinant CK2 α2β2; from Km and Vmax of Fig 1B): ~10 fold; cpm detected in PLK3 assay [1]: 50000-150000 cpm; Phospho-aminoacid accounting for phosphorylation by CK2 (CK2): entirely accounted for by phospho-serine
